row,melting point,Compound
1,139 to 140 °C,CC[C@@H](NC(=O)N1CC(=O)NC[C@H](Cc2cc(Cl)ccc2OC)C1=O)c1ccc(C(=O)O)c(N)c1
2,125 to 127 °C,CCCCOCCOc1ccc(-c2ccc(N3CCCC(C)C3)c(C=CC(=O)O)c2)cc1 (stereo not drawn)
3,178 to 181 °C,C#CCN(Cc1cc2c(=O)[nH]c(COS(C)(=O)=O)nc2cc1Cl)c1ccc(C(=O)OC(C)(C)C)cc1
4,248 to 252 °C,COc1cc2c(cc1OS(=O)(=O)C(F)(F)F)[nH]c1cc(-c3ccccc3Cl)c3c(c12)C(=O)NC3=O
5,68.7 °C,Cc1ncc(C(=O)N2CCCCC2)s1
6,165 to 167 °C,CC1(CF)C=C(C(=O)NCCC#N)c2cc([N+](=O)[O-])ccc2O1 (stereo not drawn)
7,64 °C,CCCCc1nc(SC)c[nH]1
8,82 to 103 °C,C#CCNC1=NS(=O)(=O)N=C1NCCSCc1nc[nH]c1C
9,159 to 161 °C,COC(=O)c1ccc(CCn2ccn(C3CCc4ccccc4C3)c2=S)cc1 (stereo not drawn)
10,105 to 106 °C,CCOC(=O)c1nc(C=Cc2ccc(Cl)cc2)oc1C
11,86 to 88 °C,Cc1onc(C(=O)c2ccccc2)c1NC(=O)CCl
12,203 to 204 °C,Cc1ccc(-c2ccc3c(c2)C=C(C(=O)Nc2ccc(CN4CCN(c5ncccn5)CC4)cc2)CC3)cc1
13,110 to 111 °C,COC(=O)c1cc2c3ccccc3n(CC3CC3)c2s1
14,110 to 115 °C,CCN(CC)c1ccc(N(Cc2ccc(N)c(OC)c2)C(N)=O)c(C)c1
15,126 to 128 °C,Cc1cc(C)cc(S(=O)(=O)c2c(C(C)C)nc(C)n2C)c1
16,143 to 145 °C,CS(=O)(=O)Nn1c(=O)[nH]c2cc(C(F)(F)F)c(-n3cnc(C#N)c3)cc2c1=O
17,103 to 106 °C,Oc1ccc2sc(-c3ccc(OCCN4CCCC4)cc3)c(Cc3ccc(OC4CCCCC4N4CCCCC4)cc3)c2c1 (stereo not drawn)
18,157 to 158 °C,Nc1cc(C(c2cc(F)ccc2F)S(=O)(=O)c2ccc(Cl)nc2)c(Cl)cn1 (stereo not drawn)
19,84 to 86 °C,COc1c(OC(C)=O)ccc(C=O)c1[N+](=O)[O-]

row,melting point,Compound
1,142 to 145 °C,COc1cc(C(=O)C=Cc2ccc(Br)cc2)ccc1OC1CCCCO1 (stereo not drawn)
2,104 to 106 °C,COC(=O)C(Cc1cc(OC)cc(OC)c1)c1ccc(Oc2ccc(C=C3SC(=O)NC3=O)cc2)cc1 (stereo not drawn)
3,125 to 126 °C,CCOc1cc(C=CC(=O)OC)ccc1OCc1coc(-c2ccccc2)n1
4,84 to 85 °C,COC(=O)C1Oc2ccccc2CC1CO (stereo not drawn)
5,102 to 104 °C,CC(Oc1ncn(-c2ccc(C(F)(F)F)cc2)n1)C(=O)N(C)C (stereo not drawn)
6,143 °C,NC1(CCC(O)(P(=O)(O)O)P(=O)(O)O)CCCCC1
7,140 °C,CCOC(=O)N1CCC(=C2c3ccc(Cl)cc3CCn3ccnc32)CC1
8,130 to 132 °C,CC1(CN2CCN(C(=O)OCc3ccccc3)CC2)Cn2cc([N+](=O)[O-])nc2O1 (stereo not drawn)
9,98.5 to 100 °C,COC(=O)C(C)c1ccc2c(c1)Cc1cc(OC)ccc1-2 (stereo not drawn)
10,153 to 156 °C,CS(=O)(=O)c1ccc(-c2cnn(-c3ccc(F)c(Cl)c3)c(=O)c2Cc2ccc(F)cc2)cc1
11,140 to 141 °C,C/C(=C\c1ccc(C=O)cc1)c1ccc2c(c1)C(C)(C)CCC2(C)C
12,192 to 194 °C,CN(C)c1cccc(NC(=S)NN=Cc2ccc(-c3ncn(-c4ccc(OC(F)(F)F)cc4)n3)cc2)c1
13,288 to 289 °C,CC(Cl)C(=O)Nc1cccc2c1C(=O)c1cccc(NC(=O)C(C)Cl)c1C2=O (stereo not drawn)
14,129 °C,COC1=C(c2cccc(C(F)(F)F)c2)C(=O)N(C(C)(C)C)C1
15,68 to 69 °C,CC1Cc2c(F)cc(F)cc2C1=O (stereo not drawn)
16,198 to 201 °C,O=c1c(NCCCN(Cc2ccc(F)cc2)c2ccccn2)c(NCc2ccncc2)c1=O
17,220 to 222 °C,O=C1NC(Cc2ccc(OCc3ccccc3)cn2)C(=O)NC1Cc1ccc(F)cc1 (stereo not drawn)
18,208 °C,Cc1cn(-c2ncccn2)cc1C(=O)NC(=N)N

row,Compound,melting point
1,COC(=O)CCc1ccc(C#CC2(O)CN3CCC2CC3)c(CO)c1 (stereo not drawn),35.8 °C
